“And” between values parts separate entries of the source, which are not always exact repeats. Equal values may be shown once. Read-outs that look alike come from different tables or passages of the source.
Assays:
[1] = Determination of the brain-to-plasma ratio after intraperitoneal administration (plasma and brain homogenate levels by LC-MS/MS); format: in vivo, male CD-1 mice; set-up: Brain Tissue Homogen. Conc / Brain Tissue Conc: unit not given here
Experimental: (§1) In this study, the brain-to-plasma ratio of Compound 2 and Compound 3 was evaluated after intraperitoneal dosing in fasted male CD-1 mice. Test compounds were dosed at 50 mg/kg in sterile water for injection. Plasma and brain homogenate levels were determined at 1 and 3 hours post dose by LC-MS/MS.
The dosing solution was diluted in triplicate into mouse plasma and analyzed in parallel with the study samples. The nominal dosing solution concentration was used in all calculations. All concentrations are expressed as […] of the free drug. All data are expressed as ng/mL (equivalent to ng/g for calculation of brain:plasma ratio) of the free drug. Samples that were below the limit of quantitation were not used in the calculation of averages.
Brain-to-plasma ratios were determined by dividing the brain concentration in ng/g by the plasma concentration in ng/g.
Brain samples were homogenizcd with a Virsonic 100 ultrasonic homogenizer. Each brain sample was first weighed, and then an appropriate volume of 20:80 methanol:water was added to make a 4 mL/1 gram sample. Samples were then homogenized on ice, and stored frozen until analysis.
Standards samples were prepared in either CD-1 Mouse plasma containing K2EDTA as an anticoagulant or CD-1 mouse brain homogenate. Working solutions (200 μg/mL and/or 20 μg/mL for each test compound) was prepared in 50:50 ACN:water. Then, a nine-point calibration curve was prepared at concentrations of 2000, 1500, 1000, 500, 100, 50, 20, 10, and 5 ng/mL of each test compound by serial dilution; or for a high-sensitivity method, another nine point calibration curve was prepared at concentrations of 200, 150, 100, 50, 10, 5, 2, 1, and 0.5 ng/mL of each test compound by serial dilution. Standard samples were treated identically to the study samples.
Plasma and brain homogenate samples were extracted via acetonitrile precipitation on a Tomtec Quadra 96-Model 320 liquid handling system in a 96-well plate format.

[2] = Observations and adverse reactions after intraperitoneal administration; format: in vivo, CD-1 mice; conditions: IP 50 mg/kg in sterile water for injection
Experimental: as §1

[3] = IP 50 mg/kg, 1.0 hr post dose, individual mouse, 50 mg/kg
[4] = IP 50 mg/kg, 3.0 hr post dose, individual mouse, 50 mg/kg
[5] = male, CD-1, mouse, brain/plasma, ip, 50 mg/kg, 1 hour post dose, mean of mice, read-out: Average B:P Ratio

COCCN(C)C(=O)c1cc(C(=O)N(C)CCOC)cc(C(=O)N(C)CCOC)c1 [Compound 3, N^1,N^3,N^5-tris(2-methoxyethyl)-N^1,N^3,N^5-trimethylbenzene-1,3,5-tricarboxamide]
Average B:P Ratio ([1]; IP 50 mg/kg, 1 hour post dose, mean of mice, 50 mg/kg): 0.038
B:P Ratio ([1]; IP 50 mg/kg, 1.0 hr post dose, individual mouse): 0.04
Plasma Conc [1, 3]: 3010 ng/mL and 2440 ng/mL
Average B:P Ratio ([1]; IP 50 mg/kg, 3 hours post dose, mean of mice, 50 mg/kg): 0.525
B:P Ratio [1, 4]: 0.78 and 0.24 and 0.55
Plasma Conc [1, 4]: 17.2 ng/mL and 36 ng/mL and 71.7 ng/mL
Kp at 1 h [1, 5]: 0.038 ± 0.004
Kp at 1 h ([1]; male, CD-1, mouse, brain/plasma, ip, 50 mg/kg, 1.0 hr post dose, individual mouse, read-out: B:P Ratio): 0.04
Kp at 3 h ([1]; male, CD-1, mouse, brain/plasma, ip, 50 mg/kg, 3 hours post dose, mean of mice, read-out: Average B:P Ratio): 0.525 ± 0.275
concentration at 1 h ([1]; male, CD-1, mouse, plasma, ip, 50 mg/kg, 1.0 hr post dose, individual mouse, read-out: Plasma Conc): 2770 ng/mL
adverse effects after intraperitoneal administration [2]: No adverse effects were observed

COCCNC(=O)c1cc(C(=O)NCCOC)cc(C(=O)NCCOC)c1 [Compound 2, N^1,N^3,N^5-tris(2-methoxyethyl)benzene-1,3,5-tricarboxamide]
B:P Ratio [1, 3]: 0.01 and 0.1
Brain Tissue Conc [1, 3]: 4.19
Plasma Conc [1, 3]: 675 ng/mL and 30.7 ng/mL and 41.8 ng/mL
Brain Tissue Homogen. Conc ([1]; IP 50 mg/kg, 3.0 hr post dose, individual mouse): BLQ
Plasma Conc [1, 4]: 3.13 ng/mL and 2.22 ng/mL and 16.5 ng/mL
concentration at 3 h ([1]; male, CD-1, mouse, brain, ip, 50 mg/kg, 3 hours post dose, read-out: brain tissue concentrations (BLOQ)): < 0.5 ng/mL
Kp at 1 h [1, 5]: 0.056
adverse effects after intraperitoneal administration [2]: No adverse effects were observed

From US9828332B2, “Non-peptide BDNF neurotrophin mimetics” (PHARMATROPHIX, INC., priority 2013, dated 2017)
